# Results taken from patent US8507476B2, “Substituted arylamide diazepinopyrimidone derivatives” (Sanofi, priority 2008, dated 2013).
# Counter-ions that a name gives are not always drawn.
# Columns and labels:
# GSK3β = GSK3β (Homo sapiens, UniProt P49841); assay: Inhibitory activity against GSK3β (33P-ATP phosphorylation of prephosphorylated GS1 peptide); assay type: biochemical; conditions: protocol 4: commercial GSK3beta (Millipore), 7.5 μM GS1 peptide, 10 μM ATP, 90 minutes at room temperature
# GSK3β, sequence (P49841 whole entry): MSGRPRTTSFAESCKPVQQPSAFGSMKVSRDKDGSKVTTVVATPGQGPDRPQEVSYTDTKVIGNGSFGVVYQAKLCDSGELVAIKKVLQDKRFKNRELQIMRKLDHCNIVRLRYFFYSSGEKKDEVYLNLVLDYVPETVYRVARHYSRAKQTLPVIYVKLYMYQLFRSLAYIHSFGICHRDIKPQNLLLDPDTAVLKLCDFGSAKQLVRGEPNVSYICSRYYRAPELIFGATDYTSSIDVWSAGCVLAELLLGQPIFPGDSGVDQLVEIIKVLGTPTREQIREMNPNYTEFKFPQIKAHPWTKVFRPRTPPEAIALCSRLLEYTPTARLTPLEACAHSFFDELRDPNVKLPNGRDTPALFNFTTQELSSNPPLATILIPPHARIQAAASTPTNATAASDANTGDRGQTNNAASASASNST
# Experimental: Inhibitory Activity of the Medicament of the Present Invention Against GSK3β Four different protocols can be used. In a first protocol: 7.5 μM of prephosphorylated GS1 peptide and 10 μM ATP (containing 300,000 cpm of ^33P-ATP) were incubated in 25 mM Tris-HCl, pH 7.5, 0.6 mM DTT, 6 mM MgCl2, 0.6 mM EGTA, 0.05 mg/ml BSA buffer for 1 hour at room temperature in the presence of GSK3beta (total reaction volume: 100 microliters). In a second protocol: 4.1 μM of prephosphorylated GS1 peptide and 42 μM ATP (containing 260,000 cpm ^33P-ATP) were incubated in 80 mM Mes-NaOH, pH 6.5, 1 mM Mg acetate, 0.5 mM EGTA, 5 mM 2-mercaptoethanol, 0.02% Tween 20, 10% glycerol buffer for 2 hours at room temperature in the presence of GSK3beta. In a third protocol: 7.5 μM of prephosphorylated GS1 peptide and 10 μM ATP (containing 300,000 cpm of ^33P-ATP) were incubated in 50 mM Hepes, pH 7.2, 1 mM DTT, 1 mM MgCl2, 1 mM EGTA, 0.01% Tween 20 buffer for one hour at room temperature in the presence of GSK3beta (total reaction volume: 100 microliters). In a fourth protocol: 7.5 μM of prephosphorylated GS1 peptide and 10 μM ATP (containing 300,000 cpm of ^33P-ATP) were incubated in 50 mM Hepes, pH 7.2, 1 mM DTT, 1 mM MgCl2, 1 mM EGTA, 0.01% Tween 20 buffer for 90 minutes at room temperature in the presence of commercial GSK3beta (Millipore) (total reaction volume: 100 microliters). Inhibitors were solubilised in DMSO (final solvent concentration in the reaction medium, 1%). The reaction was stopped with 100 microliters of a solution made of 25 g polyphosphoric acid (85% P2O5), 126 ml 85% H3PO4, H2O to 500 ml and then diluted to 1:100 before use. An aliquot of the reaction mixture was then transferred to Whatman P81 cation exchange filters and rinsed with the solution described above. Incorporated ^33P radioactivity was determined by liquid scintillation spectrometry. The phosphorylated GS-1 peptide had the following sequence: NH2-[…](P)EDEE-COOH. (Woodgett, J. R. (1989) Analytical Biochemistry 180, 237-241.
SMILES,IC50 (GSK3β) [nM],melting point [°C]
"CCOC(=O)N1CCn2c(nc(-c3ccncc3)cc2=O)C(NC(=O)c2ccc(F)cc2OC)C1 (racemic) [compound 35, (+/−)-9-(4-Fluoro-2-methoxy-benzoylamino)-4-oxo-2-pyridin-4-yl-5,6,8,9-tetrahydro-4H-1,4a,7-triaza-benzocycloheptene-7-carboxylic acid ethyl ester]",12,210 to 212
"COc1cc(Cl)ccc1C(=O)NC1CNCCn2c1nc(-c1ccncn1)cc2=O (single isomer, unassigned; (+)) [Compound No. 12, (+)-4-Chloro-2-methoxy-N-(4-oxo-2-pyrimidin-4-yl-4,5,6,7,8,9-hexahydro-1,4a,7-triaza-benzocyclohepten-9-yl)-benzamide]",0.3,240 to 242
"COc1cc(Cl)ccc1C(=O)NC1CN(C2CCCC2)CCn2c1nc(-c1ccncn1)cc2=O (racemic) [compound 7, (+/−)-4-Chloro-N-(7-cyclopentyl-4-oxo-2-pyrimidin-4-yl-4,5,6,7,8,9-hexahydro-1,4a,7-triaza-benzocyclohepten-9-yl)-2-methoxy-benzamide]",46,
"COc1cc(Cl)ccc1C(=O)NC1CN(C2CCCC2)CCn2c1nc(-c1ccncn1)cc2=O (racemic) (as salt: HCl) [compound 7, (+/−)-4-Chloro-N-(7-cyclopentyl-4-oxo-2-pyrimidin-4-yl-4,5,6,7,8,9-hexahydro-1,4a,7-triaza-benzocyclohepten-9-yl)-2-methoxy-benzamide]",,243 to 245
"CCOC(=O)N1CCn2c(nc(-c3ccncn3)cc2=O)C(NC(=O)c2ccccc2OC)C1 (racemic) [compound 21, (+/−)-9-(2-Methoxy-benzoylamino)-4-oxo-2-pyrimidin-4-yl-5,6,8,9-tetrahydro-4H-1,4a,7-triaza-benzocycloheptene-7-carboxylic acid ethyl ester]",5,182 to 184
